In patent publication US5721238A, “2,8-disubstituted quinazolinones” (Bayer Aktiengesellschaft, priority 1995, dated 1998):

Columns and labels:
Format in all cases: biochemical
PDE V = test: Inhibition of the phosphodiesterases in vitro: PDE V (cGMP-specific); conditions: cGMP-specific PDE V from porcine intestine, porcine aorta and/or human blood platelets; nucleotide 10^-6 mol/l; pH 7.5; 30 minutes
Procedure: (§1) The cGMP-stimulatable PDE II, the cGMP-inhibitable PDE III and the cAMP-specific PDE IV were isolated from either porcine or bovine myocardia. The Ca-calmodulin-stimulatable PDE I was isolated from the porcine aorta or porcine brain. The cGMP-specific PDE V was obtained from the porcine intestine, porcine aorta and/or human blood platelets. Purification was carried out by anion exchange chromatography on MonoQ^R Pharmacia, essentially by the method of M. Hoey and Miles D. Houslay, Biochemical Pharmacology, Volume 40, 193-202 (1990).
(§2) The enzyme activity is determined in a test batch of 100 μl in 20 mM Tris/HCl buffer of pH 7.5 which contains 5 mM MgCl2, 0.1 mg/ml of bovine serum albumin and either 800 Bq of ^3 HcAMP or ^3 HcGMP. The final concentration of the corresponding nucleotide is 10^-6 mol/l. The reaction is started by addition of the enzyme and the amount of enzyme is chosen such that about 50% of the substrate is converted during the incubation time of 30 minutes. To test the cGMP-stimulatable PDE II, ^3 HcAMP is used as the substrate and 10^-6 mol/l of non-labelled cGMP is added to the batch. To test the Ca-calmodulin-dependent PDE I, 1 μM CaCl2 and 0.1 μM calmodulin are also added to the reaction batch. The reaction is stopped by addition of 100 μl of acetonitrile which contains 1 mM cAMP and 1 mM AMP. 100 μl of the reaction batch are separated on the HPLC and the cleavage products are determined quantitatively "online" using a flow-through scintillation counter. The substance concentration at which the rate of reaction is reduced by 50% is measured.

PDE I = test: Inhibition of the phosphodiesterases in vitro: PDE I (Ca-calmodulin-stimulatable); conditions: Ca-calmodulin-stimulatable PDE I from porcine aorta or porcine brain; nucleotide 10^-6 mol/l; 1 μM CaCl2, 0.1 μM calmodulin; pH 7.5; 30 minutes
Procedure: as §1, §2

PDE II = test: Inhibition of the phosphodiesterases in vitro: PDE II (cGMP-stimulatable); conditions: cGMP-stimulatable PDE II from porcine or bovine myocardia; 3HcAMP substrate 10^-6 mol/l, 10^-6 mol/l non-labelled cGMP; pH 7.5; 30 minutes
Procedure: as §1, §2

SMILES	IC50 (PDE V) [µM]	IC50 (PDE I) [µM]	IC50 (PDE II) [µM]
CCCCCC(O)C(OC)c1cccc2c(=O)[nH]c(-c3ccccc3OCCC)nc12 (stereo not drawn) [Example 14, 2-(2-n-Propoxyphenyl)-8-(1-methoxy-2-hydroxy-1-heptyl)-quinazolin-4(3H)-one]	3	5	5
CCCOc1ccccc1-c1nc2c(C(OC)C(O)Cc3ccccc3)cccc2c(=O)[nH]1 (stereo not drawn) [Example 15, 2-(2-n-Propoxyphenyl)-8-(3-phenyl-1-methoxy-2-hydroxy-1-propyl)-quinazolin-4(3H)-one]		3	5
CCCOc1ccccc1-c1nc2c(C(OC)C(O)CCc3ccccc3)cccc2c(=O)[nH]1 (stereo not drawn) [Example 16, 2-(2-n-Propoxyphenyl)-8-(4-phenyl-1-methoxy-2-hydroxy-1-butyl)-quinazolin-4(3H)-one]	5		5
CCCCCC(O)C(CC)c1cccc2c(=O)[nH]c(-c3ccccc3OCCC)nc12 (stereo not drawn) [Example 20, 2-(2-n-Propoxyphenyl)-8-(4-hydroxy-3-nonyl)-quinazolin-4(3H)-one]	5	10	2
CCCOc1ccc(S(=O)(=O)N2CCOCC2)cc1-c1nc2c(C(C)CCCc3ccccc3)cccc2c(=O)[nH]1 (stereo not drawn) [Example 29, 2-(2-n-Propoxy-5-morpholinosulphonylphenyl)-8-(5-phenyl-2-pentyl)-quinazolin-4-(3H)-one]	1		0.5
